Results as given in ChEMBL document CHEMBL4261554, “Bioisosteric replacement of central 1,2,4-oxadiazole ring of high affinity CB2 ligands by regioisomeric 1,3,4-oxadiazole ring” (Medchemcomm, 2017).

Tests used:
Cannabinoid receptor 2 [1] = target: T1, Cannabinoid receptor 2 (Homo sapiens, UniProt P34972); assay: Displacement of [3H]CP55940 from beta-galactosidase reporter fused human CB2 receptor expressed in CHOK1 cell membranes after 1 hr by scintillation spectrometric analysis
Cannabinoid receptor 1 [2] = target: T2, Cannabinoid receptor 1 (Homo sapiens, UniProt P21554); assay: Displacement of [3H]CP55940 from beta-galactosidase reporter fused human CB1 receptor expressed in CHOK1 cell membranes at 1 uM after 1 hr by scintillation spectrometric analysis relative to control
T2 sequence (P21554 whole entry, the tested form may be a part): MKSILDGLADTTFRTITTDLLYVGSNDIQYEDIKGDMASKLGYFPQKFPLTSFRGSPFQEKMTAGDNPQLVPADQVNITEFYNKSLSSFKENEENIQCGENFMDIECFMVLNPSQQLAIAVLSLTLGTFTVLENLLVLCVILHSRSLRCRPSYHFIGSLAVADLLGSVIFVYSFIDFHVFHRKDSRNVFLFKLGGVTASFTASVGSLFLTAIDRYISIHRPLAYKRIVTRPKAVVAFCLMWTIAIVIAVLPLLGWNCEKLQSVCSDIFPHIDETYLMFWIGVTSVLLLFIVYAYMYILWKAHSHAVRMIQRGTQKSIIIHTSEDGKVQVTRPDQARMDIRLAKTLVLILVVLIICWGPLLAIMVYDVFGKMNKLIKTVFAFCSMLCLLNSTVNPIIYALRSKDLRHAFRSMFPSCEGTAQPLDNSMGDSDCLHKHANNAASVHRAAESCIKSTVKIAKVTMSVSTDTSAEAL

Cannabinoid receptor 2 [3] = target: T1, Cannabinoid receptor 2; assay: Displacement of [3H]CP55940 from beta-galactosidase reporter fused human CB2 receptor expressed in CHOK1 cell membranes at 1 uM after 1 hr by scintillation spectrometric analysis
Cannabinoid receptor 1 [4] = target: T2, Cannabinoid receptor 1; assay: biochemical

T1 sequence (P34972 whole entry, the tested form may be a part): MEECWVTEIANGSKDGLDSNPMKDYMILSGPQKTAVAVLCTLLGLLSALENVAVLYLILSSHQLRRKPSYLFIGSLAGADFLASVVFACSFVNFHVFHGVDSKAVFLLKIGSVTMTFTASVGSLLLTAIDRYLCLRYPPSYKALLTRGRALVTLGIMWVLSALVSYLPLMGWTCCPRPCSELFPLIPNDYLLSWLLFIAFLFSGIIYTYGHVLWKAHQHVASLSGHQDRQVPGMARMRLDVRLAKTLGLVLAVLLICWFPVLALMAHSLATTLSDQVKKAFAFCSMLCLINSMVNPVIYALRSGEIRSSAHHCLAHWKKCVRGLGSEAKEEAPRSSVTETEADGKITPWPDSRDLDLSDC

SMILES | Ki (Cannabinoid receptor 2 [1]) | inhibition (Cannabinoid receptor 1 [2]) | inhibition (Cannabinoid receptor 2 [3]) | Ki (Cannabinoid receptor 1 [4])
N#Cc1cc(F)ccc1-c1nnc(CCC(=O)Nc2ccc3c(c2)c2ccccc2n3CCF)o1 | 219 nM | -1% | > 50% | 
O=C(CCc1nnc(-c2ccc(F)cc2Br)o1)Nc1ccc2c(c1)c1ccccc1n2CCF | 25 nM | 22% | > 50% | 
O=C(CCc1nc(-c2ccc(Br)cc2F)no1)Nc1ccc2c(c1)c1ccccc1n2CCF |  | -5% |  | 
O=C(CCc1nnc(-c2ccc(F)cc2Br)o1)Nc1ccc2c(c1)c1ccccc1n2CCO |  |  | < 50% | 
O=C(CCc1nnc(-c2ccc(Br)cc2F)o1)Nc1ccc2c(c1)c1ccccc1n2CCO |  |  | < 50% | 
N#Cc1cc(F)ccc1-c1nnc(CCC(=O)Nc2ccc3c(c2)c2ccccc2n3CCO)o1 |  |  | < 50% | 
N#Cc1cc(F)ccc1-c1noc(CCC(=O)Nc2ccc3c(c2)c2ccccc2n3CCF)n1 |  | -8% |  | 
CCCCCCC(C)(C)c1cc(O)c2c(c1)OC(C)(C)[C@@H]1CC=C(CO)C[C@@H]21 |  |  |  | 9.55 nM
O=C(CCc1nnc(-c2ccc(Br)cc2F)o1)Nc1ccc2c(c1)c1ccccc1n2CCF | 318 nM | -8% | > 50% | 
